# Non-standard residues stand in square brackets, D forms with d. Residues, ends and D or L forms follow the SMILES beside them. *: point of attachment. X1 = COC1(c2ccc(/C=C/C(=O)O)c(OCc3ccc(N*)cc3)c2Cl)OOC12C1CC3CC(C1)CC2C3; Phe(4-Cl) = N[C@@H](Cc1ccc(Cl)cc1)C(=O)O; Igl = N[C@H](C(=O)O)C1Cc2ccccc2C1
# Legend:
# [1] = test system: Mtb strain H37Rv; type: cell-based, Mycobacterium tuberculosis; details: Mtb H37Rv incubated with FLASH for 1 h
# [2] = test system: nontuberculous mycobacteria (NTM); experiment: Detection of Mtb versus nontuberculous mycobacteria cells with FLASH probe; details: IL values for millions or thousands of cells of each species, 1 h with FLASH
# [3] = target: T1, recombinant Hip1 enzyme (Mycobacterium tuberculosis, UniProt P9WHR3); experiment: Hip1 activity measurement with FLASH probe (chemiluminescence); type: biochemical; details: total integrated luminescence after 1 h
# T1 construct: Recombinant Hip1 was purified as previously described (Lentz et al., 2016); made in house
# T1 sequence (P9WHR3 31-520): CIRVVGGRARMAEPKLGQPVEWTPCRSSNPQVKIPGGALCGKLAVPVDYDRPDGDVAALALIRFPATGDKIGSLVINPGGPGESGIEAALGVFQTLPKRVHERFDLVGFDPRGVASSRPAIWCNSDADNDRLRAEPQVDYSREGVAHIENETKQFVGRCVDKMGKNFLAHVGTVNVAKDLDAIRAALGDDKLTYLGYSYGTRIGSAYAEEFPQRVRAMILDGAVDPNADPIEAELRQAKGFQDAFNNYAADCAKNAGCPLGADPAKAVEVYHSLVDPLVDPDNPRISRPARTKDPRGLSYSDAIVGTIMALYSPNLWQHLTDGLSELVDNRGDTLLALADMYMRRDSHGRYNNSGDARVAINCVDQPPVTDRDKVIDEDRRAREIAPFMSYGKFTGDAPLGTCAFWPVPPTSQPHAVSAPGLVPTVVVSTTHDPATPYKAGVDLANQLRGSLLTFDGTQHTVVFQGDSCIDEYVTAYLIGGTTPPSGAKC
# [4] = test system: Mtb strain mc^26020; type: cell-based, Mycobacterium tuberculosis; details: Mtb mc^26020 incubated with FLASH for 1 h
compound,measurement,setting,value
COC1(c2ccc(/C=C/C(=O)O)c(OCc3ccc(NC(=O)[C@H](CC(C)C)NC(=O)[C@H](CCCCN)NC(=O)[C@H](Cc4ccc(Cl)cc4)NC(=O)[C@@H](NC(C)=O)C4Cc5ccccc5C4)cc3)c2Cl)OOC12C1CC3CC(C1)CC2C3 (stereo partly shown) [FLASH] (Ac-[Igl][Phe(4-Cl)]KL-X1),"LOD, lowest number of bacterial cells that can be detected by the probe",[1],"≤ 100,000 cells"
same,sensitivity to Mtb compared to nontuberculous mycobacteria,[2],more sensitive to Mtb compared to common nontuberculous mycobacteria
same,limit of detection (LOD) of Hip1 enzyme,[3],~2 pmol
same,"LOD, lowest number of bacterial cells that can be detected by the probe",[4],"≤ 100,000 cells"
